Data on 2 substances can be found in US20230190616A1, “COMPOUNDS USEFUL FOR THE TREATMENT AND/OR CARE OF THE SKIN, HAIR, NAILS AND/OR MUCOUS MEMBRANES” (LUBRIZOL ADVANCED MATERIALS, INC., priority 2018, published 2023).

Assay type in all cases: cell-based
The test system of assay [1] is human muscular skeletal cells (hSKMC). The assay is described as follows: Alleviation of TNF-α induced muscle mass loss in human skeletal muscle cells by immunofluorescence. The settings on record: for % Loss (muscle mass loss): 0.01 mg/ml peptide after 20 ng/ml TNFα, normalized to mass loss control (BC + TNF) = 100; for Mass loss compared to basal control treated with TNF-α (in words): 0.01 mg/ml, hSKMC. On the procedure:
In vitro alleviation of the effects of muscle mass loss induced in human skeletal muscle cells by immunofluorescence.
Muscle mass loss correction by the peptides of the invention is evaluated by an immunofluorescence assay. The aim of this study is to investigate the capacity of peptide candidates to alleviate muscular mass loss after treatment with TNF-α in human muscular skeletal cells (hSKMC), i.e., to reverse the adverse effects induced by TNF-α (a model of muscular ageing). Myosin heavy chain (MHyC) is used as a morphologic marker of differentiated myotubes allowing the measurement of their diameters, and this can be used to ascertain a degree of mass loss. Tumor necrosis factor α (TNF-α) has been described in the literature as a muscle mass loss inductor.
hSKMC (Tebu-Bio) are seeded in 96-well plates at a density of 1.5×10^4 cells/well in Skeletal Muscle Cell Growth Medium (Promocell). After 24 hours incubation, the medium is replaced with Skeletal Muscle Cell Differentiation Medium (Promocell) and cells are differentiated for 6 days. After this, muscular cells mass loss is induced by adding fresh differentiation medium with 20 ng/ml TNFα (Sigma). Non-TNFα treated cells are used as a basal control (BC). After 24 hours of mass loss induction, the culture medium is replaced in some of the well plates with fresh differentiation medium comprising 0.01 mg/ml of the peptides of the invention. TNFα treated cells which are not treated with peptides are used as a mass loss control (BC + TNF) and cells which are treated with neither the peptides of the invention nor TNFα are used as a basal mass loss control (BC). Treatment is renewed 24 hours later. After 24 hours after the second treatment, immunofluorescence is determined. Cells are fixed 15 minutes with 4% Paraformaldehyde (Sigma), permeated 15 minutes with 1% Triton X-100 (Sigma) and then blocked with 5% Bovine Serum Albumin (Sigma). Next, primary antibody Anti-MHyC mouse (1:100, Vitro) is added and incubated overnight at 4° C. After that, secondary antibody Alexa Fluor 488 goat anti-mouse IgG (1:250, Life Technologies) is added and incubated for 1 hour. Finally, myotube diameters are determined by imaging MHyC staining by Operetta™ (Perkin Elmer). Percentage of mass loss is automatically calculated with Harmony™ (Perkin Elmer) software by classifying myotubes according to their diameter using a mass loss threshold of 20 µm. The results are normalized to the mass loss control (BC + TNF).

Assay [2] has as its system human neuroblastoma cell line (SH-SY5Y). The assay is described as follows: Inhibition of noradrenaline (NA) release from human neuroblastoma cells, ELISA. The settings on record: SH-SY5Y, respect to basal control, mean of 3 assays. From the text: Inhibition of noradrenaline release from human neuroblastoma cells.
Release of neurotransmitters by exocytosis in neuromuscular junctions from peripheral neurons to skeletal muscle allows muscle contraction. Face muscles are subject to said contraction and facial muscle contraction is more frequent around eyes, mouth and forehead than elsewhere in the face. With age, continuous release of neurotransmitters into neuromuscular junctions and decrease of elasticity contribute to the increase of facial wrinkles and permanent expression lines. Compounds able to block or decrease exocytosis on neuromuscular junction sites are thus good candidates for the cosmetic treatment of unaesthetic wrinkles. In vitro induction of the neurotransmitter Noradrenaline (NA) release in a human neuroblastoma cell line (SH-SY5Y) is considered a direct and reliable method for exocytosis measurement. The aim of this study is to evaluate the efficacy of the peptides of the invention on the inhibition of neuronal exocytosis by means of measuring the levels of NA release in SH-SY5Y cells by Enzyme-linked Immunosorbent Assay (ELISA).
SH-SY5Y (ECACC) cells are seeded in 12-well plates at a density of 1×10^6 cells/well. After a 6-day culture, medium is removed from wells and cells are treated for 60 minutes with the peptides of the invention dissolved in Hank’s Balanced Salt Solution (HBSS, Life Technologies) at 1 and 2.5 mg/ml. Cells treated with HBSS alone are used as a basal control. To mobilize NA vesicles, supernatants are removed and 100 nM Tetradecanoylphorbol-13-acetate (TPA, Sigma) is dissolved in the presence of test items in HBSS or dissolved in HBSS alone in the case of the basal control. After this, solutions with TPA are removed and NA release is induced by the addition of 10 µM lonomycin (Epica) with 100 nM TPA dissolved in the presence of test items in HBSS or dissolved in HBSS alone in the case of the basal control. Afterwards, the medium in the wells, containing released NA, is collected and centrifuged. Supernatants obtained are used for quantification of NA by ELISA with noradrenalin ELISA kit (IBL International) following manufacturer’s instructions. In brief, direct sandwich ELISA is performed with a plate pre-coated with an anti-NA antibody. The color obtained after substrate addition is directly proportional to the amount of NA present in each condition tested. Absorbance is read in a microplate absorbance reader (Clariostar™, BMG) at 405 nm. The percentage of NA release for each condition is calculated respect to basal control.

The test system of assay [3] is Musclebind like protein 1 (MBNL1) in human skeletal muscle cells (hSkMc). The assay is described as follows: Quantification of Musclebind like protein 1 in human skeletal muscle cells by TR-FRET. The settings on record: 0.5 mg/ml, hSkMc; for % MBNL1 vs basal level: 48 hours, normalized to total protein. On the procedure: In vitro quantification of Musclebind like protein 1 in human skeletal muscle cells by Time resolved fluorescence resonance energy transfer.
MBNL1 induction by the peptides of the invention is evaluated by a Time resolved fluorescence resonance energy transfer (TR-FRET) assay. The aim of this study is to investigate the capacity of peptide candidates to increase MBNL-1 in human skeletal muscle cells (hSkMc).
hSkMc (Innoprot) are seeded in 12-well plates at a density of 1.5×10^4 cells/well in Skeletal Muscle Cell Growth Medium (Promocell). After 72 hours incubation, medium is removed and replaced with Skeletal Muscle Cell Differentiation Medium (Promocell). 48 hours after beginning cell differentiation, fresh differentiation medium with 0.5 mg/ml of test items is added. Treatment is continued for 48 hours and non-treated cells are used as basal control. After 48 hours of treatment, cell medium is removed and cell lysis buffer is added to wells. Immediately, plates are kept at -80° C. in order to improve protein extraction during the defrosting process. After 72 hours, cells are lysed by shaking the plates in an orbital rotor at room temperature for 45 minutes. Next, cell lysates are collected and assayed to quantify the level of MBNL-1 protein and total protein concentration.
MBNL-1 protein levels measurement is performed with Human MBNL1 Assay Kit (Cisbio) according to the manufacturer’s protocol. Briefly, the kit is used to perform a TR-FRET for MBNL1 quantification. The protein is detected with the antibodies provided in the kit and quantified by a fluorescence measurement. The quantification is carried out by using a microplate reader (ClarioStar™™™, BMG) set to 665 nm and 620 nm.
Total protein concentration of cell lysate is determined by using Pierce BCA Protein Assay Kit (Thermo Scientific) according to manufacturer’s protocol. In brief, after adding Working Reagent to the samples and the standards, the samples are incubated. Afterwards, color change is measured with an absorbance microplate reader (Clariostar™, BMG) at 562 nm. The total protein amount is used to normalize the level of MBNL1 protein concentration obtained by the TR-FRET test in the samples.

Turning to “Ac-L-Arg-L-Arg-L-Gln-D-Met-L-Glu-L-Glu-NH2 [PEP-23]”, in assay [1], the “% Loss (muscle mass loss)” value turned out to be 71.9% and the “Mass loss compared to basal control treated with TNF-α (in words)” value was “alleviate mass loss”. Further, the “% Released NA” value in assay [2] (1 mg/ml) is 78.9%. For the same substance, the “% Released NA” value in assay [2] (2.5 mg/ml) came to 52.8%. Also, in assay [3], the “% MBNL1 vs basal level” value was determined as 142.3%; the “MBNL1 levels compared to the basal control and to Argireline (in words)” value is listed as “increase MBNL1 levels”.
Regarding “Ac-L-Arg-L-Arg-D-Gln-L-Met-L-Glu-L-Glu-NH2 [PEP-22]”, in assay [1], the “% Loss (muscle mass loss)” value came out at 76.2% and the “Mass loss compared to basal control treated with TNF-α (in words)” value was “alleviate mass loss”. Further, the “% Released NA” value in assay [2] (1 mg/ml) turned out to be 58.9%. The “% Released NA” value in assay [2] (2.5 mg/ml) is given as 49.0%. Besides, in assay [3], the “% MBNL1 vs basal level” value is listed as 141.4%; the “MBNL1 levels compared to the basal control and to Argireline (in words)” value is “increase MBNL1 levels”.
